Assays:
Experiment in all cases: relative viability (nuclei count vs DMSO), 5 days (fraction); higher = more cells survive
XMD13-2 + Alpelisib = compound: C1CC1C(=O)NC2=NNC3=C2C=CC(=C3)C4=CC(=CC=C4)C(=O)NC5CC5 [XMD13-2] + Cc1nc(NC(=O)N2CCC[C@H]2C(N)=O)sc1-c1ccnc(C(C)(C)C(F)(F)F)c1 [Alpelisib] (partner 2 µM)
Procedure, shortened: (§1)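 Dosing by pin tool came one day after lung cancer cell lines were seeded in 1536-well plates, using either one drug or a fixed anchor-drug dose plus five library-drug doses (not always all listed) in √10 steps. After 5 days, nuclei were counted on 4× images. Relative viability is treated-well nuclei count divided by vehicle-well nuclei count, and values are medians of duplicate plates.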

ALW-II-49-7 + Lapatinib = compound: Cc1ccc(C(=O)Nc2cccc(C(F)(F)F)c2)cc1Nc1cncc(C(N)=O)c1 [ALW-II-49-7] + CS(=O)(=O)CCNCc1ccc(-c2ccc3ncnc(Nc4ccc(OCc5cccc(F)c5)c(Cl)c4)c3c2)o1 [Lapatinib] (partner 2 µM)
Procedure, shortened: as §1

ALW-II-49-7 + Pemetrexed = compound: Cc1ccc(C(=O)Nc2cccc(C(F)(F)F)c2)cc1Nc1cncc(C(N)=O)c1 [ALW-II-49-7] + Nc1nc2[nH]cc(CCc3ccc(C(=O)N[C@@H](CCC(=O)O)C(=O)O)cc3)c2c(=O)[nH]1 [Pemetrexed] (partner 0.2 µM)
Procedure, shortened: as §1

Dasatinib + Olaparib = compound: Cc1nc(Nc2ncc(C(=O)Nc3c(C)cccc3Cl)s2)cc(N2CCN(CCO)CC2)n1 [Dasatinib] + O=C(c1cc(Cc2n[nH]c(=O)c3ccccc23)ccc1F)N1CCN(C(=O)C2CC2)CC1 [Olaparib] (partner 8 µM)
Procedure, shortened: as §1

Cell Line	relative viability (XMD13-2 + Alpelisib; first compound 0.05 µM)	relative viability (XMD13-2 + Alpelisib; first compound 0.1581 µM)	relative viability (XMD13-2 + Alpelisib; first compound 0.5 µM)	relative viability (XMD13-2 + Alpelisib; first compound 1.581 µM)	relative viability (XMD13-2 + Alpelisib; first compound 5 µM)	relative viability (ALW-II-49-7 + Lapatinib; first compound 0.08 µM)	relative viability (ALW-II-49-7 + Lapatinib; first compound 0.253 µM)	relative viability (ALW-II-49-7 + Lapatinib; first compound 0.8 µM)	relative viability (ALW-II-49-7 + Lapatinib; first compound 2.53 µM)	relative viability (ALW-II-49-7 + Lapatinib; first compound 8 µM)	relative viability (ALW-II-49-7 + Pemetrexed; first compound 0.08 µM)	relative viability (ALW-II-49-7 + Pemetrexed; first compound 0.253 µM)	relative viability (ALW-II-49-7 + Pemetrexed; first compound 0.8 µM)	relative viability (ALW-II-49-7 + Pemetrexed; first compound 8 µM)	relative viability (Dasatinib + Olaparib; first compound 0.005 µM)	relative viability (Dasatinib + Olaparib; first compound 0.01581 µM)	relative viability (Dasatinib + Olaparib; first compound 0.05 µM)	relative viability (Dasatinib + Olaparib; first compound 0.1581 µM)	relative viability (Dasatinib + Olaparib; first compound 0.5 µM)	relative viability (ALW-II-49-7 + Pemetrexed; first compound 2.53 µM)
LOU-NH91	0.783	0.759	0.72	0.659	0.796	0.738	0.809	0.742	0.589	0.699	0.298	0.361	0.35	0.338	0.925	0.807	0.726	0.615	0.372	–
LU99A	0.553	0.491	0.561	0.446	0.335	1.03	0.919	0.739	1.12	0.999	–	0.19	0.163	0.184	0.283	0.259	0.265	0.188	0.166	0.172
LXF-289	1.09	0.982	1.08	1.05	1.04	0.864	0.818	0.922	1.01	0.967	0.822	0.869	0.958	0.959	1.07	1.02	0.925	0.268	0.158	1.05
NCI-H23	0.731	0.676	0.752	0.669	0.806	0.88	1.1	1.35	1.02	1.01	0.59	0.672	0.752	0.511	0.359	0.301	0.307	0.297	0.282	0.783
NCI-H322M	0.833	0.716	0.71	0.793	0.872	0.592	0.583	0.613	0.635	0.556	0.609	0.79	0.659	0.537	0.707	0.575	0.492	0.322	0.244	0.682
NCI-H358	1.06	0.774	0.843	0.822	0.529	0.518	0.387	0.423	0.538	0.5	0.163	0.181	0.189	0.155	0.464	0.431	0.427	0.303	0.139	0.148
NCI-H460	0.653	0.586	0.498	0.468	0.492	0.834	0.701	1.03	0.936	0.528	0.0507	0.0651	0.0651	0.0738	0.362	0.383	0.38	0.247	0.199	0.0782
NCI-H520	0.921	0.954	0.967	0.861	0.49	0.666	0.544	–	0.627	0.846	0.655	0.673	0.724	0.558	0.335	0.244	0.237	0.127	0.16	0.666
NCI-H596	0.624	0.543	0.407	0.587	0.0287	1.03	1.1	1.13	1.02	0.978	0.449	0.47	0.469	0.444	0.685	0.575	0.525	0.517	0.466	0.503
NCI-H647	1.31	1.22	1.14	1.05	1.22	0.779	0.772	1.18	0.806	0.855	0.186	0.175	0.16	0.115	0.428	0.301	0.217	0.139	0.116	0.123
NCI-H650	1.21	1.2	1.43	1.18	1.15	0.843	0.843	0.915	0.841	0.662	0.985	0.962	0.99	0.82	0.395	0.357	0.415	0.392	0.263	0.917
NCI-H661	0.751	0.854	0.506	0.4	0.448	0.47	0.474	0.383	–	0.483	0.974	0.968	0.944	0.959	0.731	0.792	0.747	0.618	0.592	0.929
NCI-H838	1.14	1.04	1.01	1	1.06	0.941	0.887	0.797	1.04	0.853	0.237	0.272	0.243	0.25	0.622	0.453	0.403	0.229	0.179	0.258
NCI-H1355	0.924	0.888	0.843	0.777	0.776	0.959	1.13	0.97	1.02	0.934	0.964	1.13	1.01	1.07	0.747	0.541	0.73	0.582	0.442	1.04
NCI-H1395	1.3	1.07	0.976	0.984	1.1	0.869	1.21	1.05	0.967	0.929	0.894	0.984	1.18	0.621	0.431	0.46	0.376	0.355	0.311	–
NCI-H1437	0.935	1.06	0.955	0.796	1.05	0.786	0.731	–	0.786	0.749	0.324	0.328	0.345	0.243	0.636	0.624	0.656	0.566	0.532	0.311

Cell Line	relative viability (XMD13-2 + Alpelisib; first compound 0.05 µM)	relative viability (XMD13-2 + Alpelisib; first compound 0.1581 µM)	relative viability (XMD13-2 + Alpelisib; first compound 0.5 µM)	relative viability (XMD13-2 + Alpelisib; first compound 1.581 µM)	relative viability (XMD13-2 + Alpelisib; first compound 5 µM)	relative viability (ALW-II-49-7 + Lapatinib; first compound 0.08 µM)	relative viability (ALW-II-49-7 + Lapatinib; first compound 0.253 µM)	relative viability (ALW-II-49-7 + Lapatinib; first compound 0.8 µM)	relative viability (ALW-II-49-7 + Lapatinib; first compound 2.53 µM)	relative viability (ALW-II-49-7 + Lapatinib; first compound 8 µM)	relative viability (ALW-II-49-7 + Pemetrexed; first compound 0.08 µM)	relative viability (ALW-II-49-7 + Pemetrexed; first compound 0.253 µM)	relative viability (ALW-II-49-7 + Pemetrexed; first compound 0.8 µM)	relative viability (ALW-II-49-7 + Pemetrexed; first compound 8 µM)	relative viability (Dasatinib + Olaparib; first compound 0.005 µM)	relative viability (Dasatinib + Olaparib; first compound 0.01581 µM)	relative viability (Dasatinib + Olaparib; first compound 0.05 µM)	relative viability (Dasatinib + Olaparib; first compound 0.1581 µM)	relative viability (Dasatinib + Olaparib; first compound 0.5 µM)	relative viability (ALW-II-49-7 + Pemetrexed; first compound 2.53 µM)
NCI-H1651	1.19	0.899	0.942	0.913	1.02	0.719	0.879	0.672	0.776	0.794	0.5	0.631	0.615	0.441	0.178	0.175	0.174	0.17	0.16	0.574
NCI-H1666	1.02	1.07	0.936	0.874	0.879	0.533	0.674	0.695	0.831	0.652	0.783	0.944	0.831	0.785	0.756	0.752	0.73	0.782	0.676	0.847
NCI-H1734	0.887	0.577	0.662	0.576	0.565	1.07	1.07	1.05	1.04	0.898	0.427	0.448	0.428	0.443	0.601	0.479	0.509	0.367	0.196	0.404
NCI-H1755	0.928	0.915	0.928	0.92	0.965	0.904	1.04	1.04	1.04	0.608	0.456	0.48	0.4	0.403	0.806	0.577	0.68	0.408	0.279	0.416
NCI-H1792	0.845	0.691	0.745	0.845	0.821	0.673	0.881	0.943	0.98	0.774	0.561	0.531	0.446	0.602	0.385	0.348	0.411	0.2	0.0885	0.857
NCI-H1793	0.797	0.835	0.686	0.732	0.897	0.811	0.708	0.796	0.787	0.988	1.05	0.806	1.08	0.734	0.69	0.404	0.385	0.367	0.521	0.868
NCI-H1915	1.1	1.08	1.04	1.05	1.06	0.949	1.01	0.914	0.848	0.644	0.451	0.546	0.49	0.375	0.267	0.231	0.235	0.151	0.149	0.457
NCI-H1944	1.02	0.85	0.889	0.939	0.778	0.82	0.915	0.843	0.889	0.623	0.6	0.597	0.611	0.537	0.415	0.298	0.332	0.191	0.135	0.582
NCI-H1975	0.768	0.642	0.656	0.607	0.648	0.742	0.835	0.763	0.994	0.87	0.312	0.306	0.266	0.244	0.707	0.723	0.706	0.448	0.216	0.296
NCI-H1993	0.666	0.663	0.694	0.763	0.642	0.663	0.811	0.863	0.825	0.695	0.61	0.515	0.631	0.64	1.08	1.13	1.23	0.895	0.794	0.591
NCI-H2009	1.23	1.14	1.22	1.15	1.23	0.913	1.02	0.819	0.728	0.466	0.971	1.14	0.955	0.749	0.715	0.731	0.772	0.556	0.127	0.751
NCI-H2023	0.661	0.618	0.52	0.53	0.617	0.801	0.6	0.866	0.743	0.58	0.235	0.23	0.237	0.242	0.43	0.456	0.377	0.378	0.379	0.214
NCI-H2085	0.965	0.946	1.04	0.928	0.98	0.892	0.858	0.718	0.776	0.707	0.867	1.01	0.913	0.854	0.799	0.745	0.553	0.292	0.187	1.01
NCI-H2087	1.14	1.08	1.13	1.05	1.03	0.976	1.07	0.839	1.15	1.01	0.637	0.679	0.673	0.621	0.635	0.55	0.902	0.42	0.349	0.606
NCI-H2126	0.825	0.754	0.754	0.767	0.795	0.603	0.826	0.765	0.737	0.752	0.733	0.708	0.654	0.755	0.932	0.84	0.845	0.681	0.416	0.661
NCI-H2170	0.97	0.77	0.871	0.777	0.696	0.313	0.284	0.264	0.302	0.302	0.283	0.275	0.244	0.285	0.585	0.572	0.525	0.427	0.263	0.302

Source: the supplement of paper PMC10307832
